Test results as given in patent US12295997B2, “Prostate neoantigens and their uses” (Janssen Biotech, Inc., priority 2020, dated 2025).

B1: P19 (peptide, listed as Homo sapiens)
chain: WTPIPVLTRWPLPHPPPWRRATSCRMARSSPSATSGSSVRRRCSSLPSWVWNLAASTRPRSTPS

Experiments:
HLA-A*03:01 = HLA-A*03:01 (Homo sapiens, UniProt P04439); assay: In vitro binding of neoantigens to class I MHC (UV peptide exchange, HLA class I ELISA); conditions: 100% = same binding as positive control peptide
Experimental: The 9 mer peptides identified by bioinformatics analysis were analyzed for their binding propensities to 6 common HLA class I alleles (HLA-A*01:01, A*02:01, A*03:01, A*24:02, B*07:02, B*08:01). The principle of the method is briefly described below and consists of two parts, one involving exchange of peptide with a positive control induced by Ultraviolet (UV) radiation, and the second is an enzyme immunoassay to detect stable HLA-peptide and empty HLA complexes.
HLA-bound peptides are critical for the stability of the HLA complex. A conditional HLA class I complex was stabilized by an UV-labile peptide utilizing a different peptide (Pos) for each HLA (Pos: HLA-A*01:01: […](SEQ ID NO: 409), HLA-A*02:01: […] (SEQ ID NO: 410), HLA-A*03:01: […] (SEQ ID NO: 411), HLA-A*24:02: […] (SEQ ID NO: 412), HLA-B*07:02: […] (SEQ ID NO: 413), HLA-B*08:01: […] (SEQ ID NO: 414), which could be cleaved by UV irradiation when bound to the HLA molecule. Upon cleavage, the resulting peptide fragments dissociated from the HLA class I complex since their length was insufficient to bind stably to HLA. Under the conditions in which peptide cleavage was performed (neutral pH, on melting ice), the peptide-free HLA complex remained stable.
The exchange efficiency between the peptide of interest and Pos was analyzed using an HLA class I ELISA. The combined technologies allowed the identification of ligands for an HLA molecule of interest which are potentially immunogenic.
Exchange control peptide Pos was a high affinity binder to the relevant HLA class I allele while exchange control peptide Neg was a non-binder. The UV control represented UV-irradiation of conditional HLA class I complex in the absence of a rescue peptide.
The HLA class I ELISA is an enzyme immunoassay based on the detection of beta2-microglobulin (B2M) of (peptide-stabilized) HLA class I complexes. To this end streptavidin was bound onto polystyrene microtiter wells. After washing and blocking, HLA complex present in exchange reaction mixtures or ELISA controls was captured by the streptavidin on the microtiter plate via its biotinylated heavy chain. Non-bound material was removed by washing. Subsequently, horseradish peroxidase (HRP)-conjugated antibody to human B2M was added. The HRP-conjugated antibody binds only to an intact HLA complex present in the microtiter well because unsuccessful peptide exchange results in disintegration of the original UV-sensitive HLA complex upon UV illumination. In the latter case B2M was removed during the washing step. After removal of non-bound HRP conjugate by washing, a substrate solution was added to the wells. A coloured product formed in proportion to the amount of intact HLA complex present in the samples. After the reaction was terminated by the addition of a stop solution, absorbance was measured in a microtiter plate reader. The absorbance was normalized to the absorbance of an exchange control peptide (represents 100%). Suboptimal HLA binding of peptides with a moderate to low affinity for HLA class I molecules can also be detected by this ELISA technique (Rodenko, B et al. (2006) Nature Protocols 1: 1120-32).
Peptides that had 10% or greater exchange efficiency in one of the 6 HLA alleles were considered for further immunogenicity testing and analysis.
Binding of select neoepitopes to HLA-A*01:01, HLA-A*02:01, HLA-A*03:01, HLAA*24:02, HLAAB*07:02 and HLA-B*08:01 was evaluated using the assay described in Example 1. […] As a criterion for further evaluation, peptides with an exchange rate of at least 10% with the corresponding Pos peptide for at least one of the 6 HLA alleles that we considered for further evaluation. The exchange rates with the allele specific Pos peptides, of the 24 neoantigens so identified are summarized below in Table 17. Higher percentages correspond to stronger binding to the HLA allele.

[1] = tested on: CD8+ T cells in PBMCs from human patients with metastatic castrate-resistant prostate cancer; assay: Patient PBMC restimulation assay (in vitro immunogenicity, TNFα/IFNγ intracellular flow cytometry); format: cell-based; conditions: 9-mer peptide; for Maximum frequency of TNFα^+IFNγ^+CD8^+ T cells (Percent): greatest frequency among all tested PBMC donors; for Immunogenic: patient PBMC restimulation; for Maximum fold change over negative control: TNFα+IFNγ+CD8+ T cells, highest across PBMC donors evaluated
Experimental: PBMCs from human patients with metastatic castrate-resistant prostate cancer were thawed using media (RPMI 1640 supplemented with Glutamax, 10% HI FBS, and 1× Sodium Pyruvate). Cells were counted and plated in a 96 well round bottom microplate at a concentration of 250,000 viable cells per well. Lyophilized peptides were solubilized in 100% DMSO and diluted in media to 10 μg/mL. Neoantigen peptides were added in equal volume to PBMCs for a final concentration of 5 μg/mL. CEF Peptide Pool “Plus” (Cellular Technologies, Ltd.) was utilized as a positive control and DMSO at the same final concentration as the experimental peptides was utilized as a negative control. Human IL-15 (Peprotech) was added to all wells at final concentration of 10 ng/mL.
Plates were incubated at 37° C. (5% CO2) for a total of 13 days. Media was refreshed every 2 days with IL-15 (10 ng/mL final concentration) and IL-2 (R&D systems, 10 IU/mL final concentration). On day 12, PBMCs were re-stimulated with identical experimental peptides or controls, at same concentration as peptide stimulation on Day 1. After 1-hour incubation, protein Inhibitor Cocktail (eBioscience) was added to every well and plate was incubated overnight.
On day 13, cells were stained for intracellular flow cytometry analysis. The cells were washed with PBS and stained with Live/Dead Fixable Aqua Dead Cell stain (Thermo-Fisher). Following the live/dead stain, cells were blocked using Biotin-Free Fc Receptor Blocker (Accurate Chemical & Scientific Corp). Extracellular cellular flow panel ([…] per well in 50 μL) consisted of CD3 PerCP-Cy5.5 (Biolegend), CD4 BV421 (Biolegend), and CD8 APC-Cy7 (Biolegend). After extracellular staining, cells were fixed using Foxp3/fTranscription Factor Staining Buffer Set (eBioscience) and stained for intracellular proteins (1:50 dilution) using TNFα FITC (R&D Systems) and IFNγ BV785 (Biolegend). Cells were washed and resuspended in stain buffer and analyzed using a BD Celesta flow cytometer.
Flow cytometry cell staining analysis was completed using FlowJo v10. Cells were gated on live, singlet, CD3+ cells. The CD8+ T cells were analyzed for TNFα/IFNγ expression and the frequency of double positive TNFα/IFNγ CD8+ T cells was recorded. Responses were assessed to be positive when the frequency of double positive TNFα/IFNγ CD8+ T cells due to stimulation with an experimental peptide was increased greater than or equal to 2-fold over the DMSO only negative control for that patient. Peptides were analyzed in 1 to 7 patient samples.
The 9 mer fragments shown in Table 13 were assessed for their ability to activate T cells using the Patient PBMC restimulation assay described in Example 1 using TNFα and IFNγ production by CD8^+ T cells as a readout. Self-antigens shown in Table 15 were also used in the assays. […] PBMCs from ten patients were evaluated.

| Molecule | Exchange rate with allele specific Pos peptide, HLA-A*03:01 (HLA-A*03:01) [%] | Maximum frequency of TNFα^+IFNγ^+CD8^+ T cells (Percent) [1] [%] | Immunogenic [1] | Maximum fold change over negative control [1] |
| --- | --- | --- | --- | --- |
| SLYHREKQLIAMDSAI (listed as Homo sapiens) [Neoantigen P22] | 4.8 | 0.120 | Yes | – |
| P61 (MFENGCYLGRQKRFKCE; listed as Homo sapiens) [Peptide P61] | 2.1 | 0.084 | Yes | – |
| P73 (DSSGNLLERNSFEVRV; listed as Homo sapiens) [Peptide P73] | 3.5 | 0.110 | Yes | 2.97 |
| P58 (MMAEIISVHVPKILSGK; listed as Homo sapiens) [Peptide P58] | 32.5 | 5.370 | Yes | – |
| YEAGMTLGEKFRVGNCKHLKMTRP (listed as Homo sapiens) [Neoantigen P82] | 58.1 | 0.970 | Yes | 3.46 |
| P46 (DDRNTFDIVWWCPMSRLRLALTVPPSTTTTCVTVPAWAA; listed as Homo sapiens) [Peptide P46] | 10.3 | 0.140 | Yes | 2.33 |
| P56 (PKSEVRAKCKFSILNAK; listed as Homo sapiens) [Peptide P56] | 6.8 | 1.620 | Yes | 11.57 |
| P97 (GYLRMQGLMAQRLLLR; listed as Homo sapiens) [Peptide P97] | 39 | 0.160 | Yes | 4.55 |
| YEAGMTLGGKILFFLFLLLPLSPFSLIF (listed as Homo sapiens) [Neoantigen P87] | 2.4 | 0.120 | Yes | 3.24 |
| P98: neoantigen 9 mer fragment used for PBMC stimulation (FIG. 5D) (IVWWCPMSR; listed as Homo sapiens) [Neoantigen P98] | 51.1 | 1.000 | Yes | 14.93 |
| P60 (CYLRRQKRLKCEKQPGA; listed as Homo sapiens) [Peptide P60] | 36.6 | 0.340 | Yes | 2.08 |
| B1 | 4.1 | 0.480 | Yes | 5.00 |
